“And” between values parts separate entries of the source, which are not always exact repeats. Equal values may be shown once.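 A five-concentration, 48-hour dose response in 96-well plates underlies each endpoint, interpolated linearly between surrounding concentrations. GI50 = concentration required for 50% inhibition of growth. TGI denotes the concentration required for complete inhibition of growth.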
Experiments:
Assay in all cases: growth of human tumour cells (NCI), 48 h
[1] = tested on: HCT-116 colon
[2] = tested on: HCT-15 colon
[3] = tested on: HL-60(TB) leukemia
[4] = tested on: LOX IMVI melanoma
[5] = tested on: NCI-H23 lung
[6] = tested on: NCI-H522 lung
[7] = tested on: SN12C renal
[8] = tested on: SNB-19 CNS
[9] = tested on: SW-620 colon
[10] = tested on: XF 498 CNS

Structure (SMILES) | TGI [1] [µM] | TGI [2] [µM] | TGI [3] [µM] | TGI [4] [µM] | TGI [5] [µM] | TGI [6] [µM] | TGI [7] [µM] | TGI [8] [µM] | TGI [9] [µM] | TGI [10] [µM] | GI50 [1] [µM] | GI50 [2] | GI50 [4] | GI50 [7] | GI50 [8]
CN1CCN(CCSC2Cc3cc(Cl)ccc3Sc3ccccc32)CC1 (configuration not stated) | 15.3 | 12.2 | 5.46 | 14.1 | 23.6 | 12.8 | 23.7 | 33.9 | 7.21 | 9.57 |  |  |  |  | 
NC(N)=N/N=C(/c1nc2ccc([N+](=O)[O-])cc2[nH]c1=O)C(O)c1ccco1 (configuration not stated) | > 100 | > 100 | > 100 | > 100 | > 100 | > 100 | > 100 | > 100 | > 100 | > 100 |  |  |  |  | 
COc1cc(-c2cc(=O)c3cc4c(cc3[nH]2)OCO4)cc(OC)c1OC | > 100 | > 100 | > 100 | > 100 | > 100 | > 100 | > 100 | > 100 | > 100 | > 100 | 73.7 |  |  |  | 
c1cnc2c(c1)-n1cccc1C1(CCSCC1)NN2 | > 100 | > 100 | > 100 | > 100 |  | > 100 | > 100 | > 100 | > 100 | > 100 |  |  |  |  | 
CCN(CC)CCn1c2c3ccccc3ccc2c2oc(=O)c3ccccc3c21 | > 100 | > 100 | > 100 | > 100 | > 100 | > 100 |  | > 100 | > 100 | > 100 |  |  |  |  | 
CC1(C)C(=O)N(c2ccccc2)C(=O)N1c1nc2ccccc2[nH]1 | > 100 | > 100 | > 100 | > 100 | > 100 | > 100 | > 100 | > 100 | 36.3 | > 100 |  |  |  |  | 
CCOc1ccccc1NC(=O)/C=C1\NC(=O)CS1 | > 100 |  | > 100 | > 100 | > 100 | > 100 | > 100 | > 100 | > 100 | > 100 |  |  |  |  | 
CCN(CC)c1ccc(N=Nc2ccc(-c3nc4cccnc4o3)cc2)cc1 | > 100 | > 100 | > 100 | > 100 | > 100 | > 100 | > 100 | > 100 | > 100 | > 100 |  |  |  |  | 
COP1(=O)CC2C(Cl)(Cl)C2(C)C1 (configuration not stated) | > 100 |  | > 100 | > 100 | > 100 | > 100 | > 100 | > 100 | > 100 | > 100 |  |  |  |  | 
CC1CC(c2ccccc2)=Nc2ccccc2S1(=O)=O (configuration not stated) | 3.13 | 54.2 | 52.8 | 31 | 30.8 | 31 | 34.3 | 28.4 | 31.6 | 32.7 |  |  |  |  | 
C=CCNC(=S)N1CC(C)C(=O)Nc2ccccc21 (configuration not stated) | > 100 | > 100 | > 100 | > 100 | > 100 | > 100 | > 100 | > 100 | > 100 | > 100 |  |  |  |  | 
NC(=O)c1c[se]c(C2OC(CO)C(O)C2O)n1 (configuration not stated) | 55 | > 100 | > 100 | > 100 | > 100 | > 100 | > 100 | > 100 | > 100 | > 100 |  |  |  |  | 
Cc1nc(N)sc1C(=O)/C=C/c1ccc(/C=C/C(=O)c2sc(NC(=O)CCCCCCCCC(=O)Nc3nc(C)c(C(=O)/C=C/c4ccc(/C=C/C(=O)c5sc(N)nc5C)cc4)s3)nc2C)cc1 | > 100 | > 100 | > 100 | > 100 | > 100 | > 100 | > 100 | > 100 | > 100 | > 100 |  |  |  |  | 
CC(=O)OCC1OC(n2c(-c3ccccc3)cc(-c3ccco3)c(C#N)c2=O)C(OC(C)=O)C(OC(C)=O)C1OC(C)=O (configuration not stated) | > 100 | > 100 | > 100 | > 100 | > 100 | > 100 | > 100 | > 100 | > 100 | 43.7 |  | > 100 µM and 18.3 µM | 2.23 µM and 14.6 µM | 77.2 µM and 23.5 µM | 90.5 µM and 36.3 µM
COC(=O)c1c(-c2ccccc2)cc2c3cc(-c4ccccc4)c(C(=O)OC)n3c3ccccc3n12 | > 100 | > 100 | > 100 | > 100 | > 100 | > 100 | > 100 | > 100 | > 100 | > 100 |  |  |  |  | 
CCOC(=O)CCC(=O)C1c2cccc(O)c2C(=O)c2c(O)cccc21 | 2.6 |  | 0.657 | 1.89 | 3.09 | 1.46 | 3.22 | 3.7 | 2.24 | 0.551 |  |  |  |  | 
O=C(C(O)c1cn(Cc2ccccc2)c2ccccc12)N1CCCCC1 (configuration not stated) | > 100 | > 100 | > 100 | > 100 | > 10 | > 100 | > 100 | > 100 | > 100 | > 100 |  |  |  |  | 
CCC(=O)c1cn(C)c(=O)c2ccccc12 |  | > 100 | > 100 | > 100 | > 100 | > 100 | > 100 | > 100 | > 100 | > 100 |  |  |  |  | 
N#CCCc1nc2ccc(Br)cc2c(=O)n1CCO |  | > 100 | > 100 | > 100 | > 100 | > 100 | > 100 |  | > 100 | > 100 |  |  |  |  | 
COc1ccc(NC(=O)C2C(=O)N(c3ccc(OC)cc3)C(=O)/C2=N/O)cc1 (configuration not stated) | 38.3 | > 100 | > 100 | > 100 | > 88.1 | 53.4 | 71.9 | > 70.5 | > 100 | 18.7 |  |  |  |  | 
COc1ccc(-c2c(C3=NCCN3)nnn2-c2ccccc2)cc1 | > 100 | > 100 | > 100 | > 100 | > 100 | > 100 | > 100 | > 100 | > 100 | > 100 |  |  |  |  | 
